# Experiments:
# human A2B receptors = molecular target: T1, human A2B receptors (Homo sapiens, UniProt P29275); assay: Binding at human A2B receptors expressed in HEK-293 cells vs [125I]-ABOPX; conditions: read-out: Ki hA2B (converted)
# T1 construct: expressed in transfected cells; host or cells: HEK-293
# T1 sequence (P29275 1-332): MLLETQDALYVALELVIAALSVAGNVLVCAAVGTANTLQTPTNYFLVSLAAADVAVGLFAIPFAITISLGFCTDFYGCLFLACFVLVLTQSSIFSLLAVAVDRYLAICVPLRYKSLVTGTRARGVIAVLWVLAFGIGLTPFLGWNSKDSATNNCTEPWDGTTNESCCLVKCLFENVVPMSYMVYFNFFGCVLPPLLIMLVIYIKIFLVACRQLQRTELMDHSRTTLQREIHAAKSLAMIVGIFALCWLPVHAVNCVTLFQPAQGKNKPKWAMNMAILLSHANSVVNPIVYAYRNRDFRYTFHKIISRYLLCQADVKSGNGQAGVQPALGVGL
# Description: The human A2B receptor cDNA was subcloned into the expression plasmid pDoubleTrouble [[Robeva et al., 1996a]]. The plasmid was amplified in competent JM109 cells and plasmid DNA isolated using Wizard Megaprep columns (Promega Corp., Madison, WI).
# Transfected HEK cells were grown under 5% CO2/[…] humidified atmosphere at a temperature of 37°C. Colonies were selected by growth of cells in 0.6 mg/mL G418. Transfected cells were maintained in DMEM supplemented with Hams F12 nutrient mixture (1/1), 10% newborn calf serum, 2 mM glutamine, and containing 50 IU/mL penicillin, 50 μg/mL streptomycin, and 0.2 mg/mL Geneticin (G418, Boehringer Mannheim, Indianapolis, IN). Cells were cultured in 10 cm diameter round plates and subcultured when grown confluent (approximately after 72 h).
# Confluent monolayers of HEK-A2B cells were washed with PBS followed by ice-cold Buffer A (10 mM HEPES, 10 mM EDTA, pH 7.4) with protease inhibitors ([…] benzamidine, […], and […] of each aprotinin, pepstatin, and leupeptin). The cells were homogenized in a Polytron (Brinkmann) for 20 sec, centrifuged at 30,000g, and the pellets washed twice with buffer HE (10 mM HEPES, 1 mM EDTA, pH 7.4 with protease inhibitors). The final pellet was resuspended in buffer HE, supplemented with 10% sucrose and frozen in aliquots at −80°C. For binding assays, membranes were thawed and diluted 5–10-fold with HE to a final protein concentration of approximately 1 mg/mL. To determine protein concentrations, membranes, and bovine serum albumin standards were dissolved in 0.2% NaOH/0.01% SDS and protein determined using fluorescamine fluorescence [[Stowell et al., 1978]]. […] To prepare [^125I-]ABOPX, […] of 1 mM ABOPX in methanol/1 M NaOH (20:1) was added to […] of 100 mM phosphate buffer, pH 7.3. One or 2 mCi of Na^125I was added, followed by […] of 1 mg/mL chloramine-T in water. After incubating for 20 min at room temperature, 50 mL of 10 mg/mL Na-metabisulfite in water was added the quench the reaction. The reaction products were applied to a C18 HPLC column using 4 mM phosphate, pH 6.0/methanol. After 5 min in 35% methanol, the methanol concentration was ramped to 100% over 15 min. Unreacted ABOPX eluted in 11–12 min; [^125I-]ABOPX eluted at 18–19 min in a yield of 50–60% of the initial ^125I. In equilibrium binding assays the ratio of [^127I/^125I-]ABOPX was 10–20/1. […] The incubation time was 3 h at 21°C. […] Competition experiments were carried out using 0.6 nM ^125I-ABOPX. Membranes were filtered on Whatman GF/C filters using a Brandell cell harvester (Gaithersburg, MD) and washed three times over 15–20 sec with ice-cold buffer (10 mM Tris, 1 mM MgCl2, pH 7.4). Bmax and KD values were calculated by Marquardt’s nonlinear least squares interpolation for single site binding models [[Marquardt, 1963]]. Ki values for different compounds were derived from IC50 values as described previously [[Linden, 1982]]. Data from replicate experiments are tabulated as means ± SEM.
# (§1) At A2B receptors, two radioligand binding assays (Table 1) were used. Ki values of xanthine derivatives were determined in displacement of binding of the non-selective radioligands […], 8 (4-(2-[7-amino-2-{furyl}{1,2,4}triazolo{2,3-a}{1,3,5}tr nzyl)-8-phenyloxyacetate-1-propyl-xanthine), at human A2B receptors expressed in HEK-293 cell membranes [[Linden and Jacobson, 1998]]. In order to evaluate selectivity, selected derivatives were subjected to standard binding assays at A1, A2A, and A3 receptors. The initial screening utilized rat brain A1/A2A receptors (with radioligands [^3H]R-PIA and [^3H]CGS-21680), and selected compounds were examined at the recombinant human subtypes (Table 1), using [^3H]CPX ([^3H]8-cyclopentyl-1,3-dipropylxanthine) and ^125I-ZM 241385, ^125I-4-(2-[7-amino-2-[2-furyl][1,2,4]triazolo[2,3-a][1,3,5]triazin-5-yl-amino]ethyl)phenol) [[Palmer et al., 1996]].
# rat A1 receptors = molecular target: T2, rat A1 receptors (Rattus norvegicus, UniProt P25099); assay: Displacement of [3H]R-PIA binding to A1 receptors in rat brain membranes; conditions: read-out: Ki rA1
# T2 construct: to A1 receptors from rat cerebral cortical membranes; from tissue; host or cells: rat cerebral cortical membranes
# T2 sequence (P25099 1-326): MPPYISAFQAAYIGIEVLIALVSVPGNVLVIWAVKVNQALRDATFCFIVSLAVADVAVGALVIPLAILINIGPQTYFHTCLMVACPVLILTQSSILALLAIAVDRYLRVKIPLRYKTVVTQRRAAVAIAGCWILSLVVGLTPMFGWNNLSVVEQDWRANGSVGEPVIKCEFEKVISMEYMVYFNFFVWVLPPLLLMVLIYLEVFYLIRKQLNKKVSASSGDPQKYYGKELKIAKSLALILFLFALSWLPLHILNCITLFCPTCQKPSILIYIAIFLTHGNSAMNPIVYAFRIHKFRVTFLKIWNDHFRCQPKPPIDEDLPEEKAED
# Description: All nonradioactive compounds were initially dissolved in DMSO and diluted with buffer to the final concentration, where the amount of DMSO never exceeded 2%. Incubations were terminated by rapid filtration over Whatman GF/B filters using a Brandell cell harvester. The tubes were rinsed three times with 3 mL buffer each.
# At least six different concentrations of competitor, spanning 3 orders of magnitude adjusted appropriately for the IC50 value of each compound, were used. IC50 values, calculated with the nonlinear regression method implemented in Graph-Pad Prism (San Diego, CA) were converted to apparent Ki values as described by [Linden [1982]]. Hill coefficients of the tested compounds were in the range of 0.8–1.1.
# as §1
SMILES,Ki (human A2B receptors) [nM],Ki (rat A1 receptors) [nM]
CCCn1c(=O)c2[nH]c(-c3ccc(OCC(=O)OCC)cc3)nc2n(CCC)c1=O [Compound 4b],34.5,
"CCCn1c(=O)c2[nH]c(-c3ccc(OCC(=O)NNC(C)=O)cc3)nc2n(CCC)c1=O [Compound 4e, 8-[4-[(Carboxymethyl)oxy]phenyl]-1,3-di-(n-propyl)xanthine N-Acetylhydrazide]",33.8,6.51 ± 1.24
"CCCn1c(=O)c2[nH]c(-c3ccc(OCC(=O)NNC(=O)CCC(=O)O)cc3)nc2n(CCC)c1=O [Compound 9, 8-[4-[(Carboxymethyl)oxy]phenyl]-1,3-di-(n-propyl)xanthine N-[(3-Carboxy)-n-propionyl]hydrazide]",97.8,73.3 ± 22
"CCCn1c(=O)c2[nH]c(-c3ccc(OCC(=O)NN4C(=O)C(C)=C(C)C4=O)cc3)nc2n(CCC)c1=O [Compound 14, 8-[4-[(Carboxymethyl)oxy]phenyl]-1,3-di-(n-propyl)xanthine N,N-[(1,2-Dimethyl)maleyl]hydrazide]",33.8,11.1 ± 2.4
"CCCn1c(=O)[nH]c(=O)c2[nH]c(-c3ccc(OCC(=O)NN4C(=O)C(C)=C(C)C4=O)cc3)nc21 [Compound 15, 8-[4-[(Carboxymethyl)oxy]phenyl]-1H-3-(n-propyl)xanthine N,N-[(1,2-Dimethyl)maleyl]hydrazide]",1900,3590
"CCCn1c(=O)c2[nH]c(-c3ccc(OCC(=O)NN4C(=O)c5ccccc5C4=O)cc3)nc2n(CCC)c1=O [Compound 21, 8-[4-[(Carboxymethyl)oxy]phenyl]-1,3-di-(n-propyl)xanthine N,N-Phthaloylhydrazide]",46.4,26.3 ± 2.3
